Data set [1] can be described thus: MLM metabolic stability (% remaining). The settings on record: for MLM 10000 % REM.: 10000 (unit not given); for MLM 100000 % REM.: 100000 (unit not given).
The nature of data set [2]: RLM metabolic stability (% remaining). The settings on record: for RLM 10000 % REM.: 10000 (unit not given); for RLM 100000 % REM.: 100000 (unit not given).

SMILES strings stand for the structures.

For the molecule `CCN(CC)C(=O)c1ccc(N(c2cccc(O)c2)C2CCN(Cc3ccccc3)CC2)cc1` [Example 1], in data set [1], the “MLM 10000 % REM.” value stood at 10.4% and the “MLM 100000 % REM.” value is 85.2%. Besides, in data set [2], the “RLM 10000 % REM.” value came to 4.333% and the “RLM 100000 % REM.” value was found to be 66.125%.

As to `CCN(CC)C(=O)c1ccc(N(c2cc(O)ccc2F)C2CCN(Cc3ccccc3)CC2)cc1` [Example 6, N,N-diethyl-4-[(2-fluoro-5-hydroxyphenyl)[1-(phenylmethyl)-4-piperidinyl]amino]-benzamide], in data set [1], the “MLM 10000 % REM.” value is given as 2% and the “MLM 100000 % REM.” value is reported as 69%. In addition, in data set [2], the “RLM 10000 % REM.” value stood at 5.333% and the “RLM 100000 % REM.” value came to 81.333%.

As for `CCN(CC)C(=O)c1ccc(N(c2cccc(O)c2)C2CCN(Cc3ccoc3)CC2)cc1` [Example 15, N,N-diethyl-4-[[1-(3-furanylmethyl)-4-piperidinyl](3-hydroxyphenyl)amino]-benzamide], in data set [1], the “MLM 10000 % REM.” value is 3.5% and the “MLM 100000 % REM.” value amounted to 83.5%. In data set [2], the “RLM 10000 % REM.” value came out at 8% and the “RLM 100000 % REM.” value was 73%.

Regarding `CCN(CC)C(=O)c1ccc(N(c2cccc(O)c2)C2CCN(Cc3ccsc3)CC2)cc1` [Example 16, N,N-diethyl-4-[(3-hydroxyphenyl)[1-(3-thienylmethyl)-4-piperidinyl]amino]-benzamide], in data set [1], the “MLM 10000 % REM.” value was determined as 5% and the “MLM 100000 % REM.” value stood at 83%. Also, in data set [2], the “RLM 10000 % REM.” value was found to be 1.5% and the “RLM 100000 % REM.” value was 66.5%.

Consider `CCN(CC)C(=O)c1ccc(N(c2cccc(O)c2)C2CCN(Cc3ccc(I)cc3)CC2)cc1` [Example 19, N,N-diethyl-4-[(3-hydroxyphenyl)[1-[(4-iodophenyl)methyl]-4-piperidinyl]amino]-benzamide], for which, in data set [1], the “MLM 10000 % REM.” value turned out to be 30.667% and the “MLM 100000 % REM.” value is listed as 61.667%. Moreover, in data set [2], the “RLM 10000 % REM.” value turned out to be 0% and the “RLM 100000 % REM.” value worked out at 35.667%.

For the molecule `CCN(CC)C(=O)c1ccc(N(c2cccc(O)c2)C2CCN(Cc3ccc(Br)cc3)CC2)cc1` [Example 20, N,N-diethyl-4-[[1-[(4-bromophenyl)methyl]-4-piperidinyl](3-hydroxyphenyl)amino]-benzamide], in data set [1], the “MLM 10000 % REM.” value is recorded as 30.5% and the “MLM 100000 % REM.” value is 81.5%. Further, in data set [2], the “RLM 10000 % REM.” value came to 4.5% and the “RLM 100000 % REM.” value is listed as 51.5%.

Consider `CCN(CC)C(=O)c1ccc(N(c2cccc(O)c2)C2CCN(Cc3ccc(Cl)cc3)CC2)cc1` [Example 21, N,N-diethyl-4-[[1-[(4-chlorophenyl)methyl]-4-piperidinyl](3-hydroxyphenyl)amino]-benzamide], for which, in data set [1], the “MLM 10000 % REM.” value turned out to be 16.333% and the “MLM 100000 % REM.” value was 85%. Besides, in data set [2], the “RLM 10000 % REM.” value came to 2.333% and the “RLM 100000 % REM.” value is 45%.

On to `CCN(CC)C(=O)c1ccc(N(c2cccc(O)c2)C2CCN(Cc3ccc(F)cc3)CC2)cc1` [Example 22, N,N-diethyl-4-[[1-[(4-fluorophenyl)methyl]-4-piperidinyl](3-hydroxyphenyl)amino]-benzamide], for which, in data set [1], the “MLM 10000 % REM.” value is reported as 8.5% and the “MLM 100000 % REM.” value worked out at 85%. Moreover, in data set [2], the “RLM 10000 % REM.” value was determined as 17% and the “RLM 100000 % REM.” value came to 63%.

Turning to `CCN(CC)C(=O)c1ccc(N(c2cccc(O)c2)C2CCN(Cc3ccc(Cl)cc3Cl)CC2)cc1` [Example 23, 4-[[1-[(2,4-dichlorophenyl)methyl]-4-piperidinyl](3-hydroxyphenyl)amino]-N,N-diethyl-benzamide], in data set [1], the “MLM 10000 % REM.” value is given as 30.5% and the “MLM 100000 % REM.” value is listed as 93%. Moreover, in data set [2], the “RLM 10000 % REM.” value is recorded as 20.5% and the “RLM 100000 % REM.” value stood at 75%.

In the case of `CCN(CC)C(=O)c1ccc(N(c2cccc(O)c2)C2CCN(Cc3cccc(F)c3)CC2)cc1` [Example 24, N,N-diethyl-4-[[1-[(3-fluorophenyl)methyl]-4-piperidinyl](3-hydroxyphenyl)amino]-benzamide], in data set [1], the “MLM 10000 % REM.” value was found to be 3.5% and the “MLM 100000 % REM.” value is listed as 71.5%. Besides, in data set [2], the “RLM 10000 % REM.” value was determined as 3.5% and the “RLM 100000 % REM.” value came out at 87.5%.

On to `CCN(CC)C(=O)c1ccc(N(c2cccc(O)c2)C2CCN(Cc3ccccc3F)CC2)cc1` [Example 25, N,N-diethyl-4-[[1-[(2-fluorophenyl)methyl]-4-piperidinyl](3-hydroxyphenyl)amino]-benzamide], for which, in data set [1], the “MLM 10000 % REM.” value is recorded as 0% and the “MLM 100000 % REM.” value was 71%. Also, in data set [2], the “RLM 10000 % REM.” value worked out at 4% and the “RLM 100000 % REM.” value is 71%.

In the case of `CCN(CC)C(=O)c1ccc(N(c2cccc(O)c2)C2CCN(Cc3ccc(C)cc3)CC2)cc1` [Example 26, N,N-diethyl-4-[(3-hydroxyphenyl)[1-[(4-methylphenyl)methyl]-4-piperidinyl]amino]-benzamide], in data set [1], the “MLM 10000 % REM.” value is given as 31.5% and the “MLM 100000 % REM.” value turned out to be 86%. Besides, in data set [2], the “RLM 10000 % REM.” value amounted to 3.5% and the “RLM 100000 % REM.” value amounted to 63.5%.

Consider `CCN(CC)C(=O)c1ccc(N(c2cccc(O)c2)C2CCN(Cc3ccco3)CC2)cc1` [Example 27, N,N-diethyl-4-[[1-(2-furanylmethyl)-4-piperidinyl](3-hydroxyphenyl)amino]-benzamide], for which, in data set [1], the “MLM 10000 % REM.” value is reported as 2% and the “MLM 100000 % REM.” value turned out to be 65%. In addition, in data set [2], the “RLM 10000 % REM.” value turned out to be 3.5% and the “RLM 100000 % REM.” value is on record as 54.5%.

With `CCN(CC)C(=O)c1ccc(N(c2cccc(O)c2)C2CCN(Cc3cccs3)CC2)cc1` [Example 28, N,N-diethyl-4-[(3-hydroxyphenyl)[1-(2-thienylmethyl)-4-piperidinyl]amino]-benzamide], in data set [1], the “MLM 10000 % REM.” value came to 1.5% and the “MLM 100000 % REM.” value turned out to be 80%. For the same molecule, in data set [2], the “RLM 10000 % REM.” value came to 1.5% and the “RLM 100000 % REM.” value amounted to 52%.

Turning to `CCN(CC)C(=O)c1ccc(N(c2cccc(O)c2)C2CCN(Cc3ncc[nH]3)CC2)cc1` [Example 29, N,N-diethyl-4-{3-hydroxy[1-(1H-imidazol-2-ylmethyl)-4-piperidinyl]anilino}benzamide], in data set [1], the “MLM 10000 % REM.” value is given as 6% and the “MLM 100000 % REM.” value amounted to 92.5%. In data set [2], the “RLM 10000 % REM.” value is on record as 36.5% and the “RLM 100000 % REM.” value worked out at 74.5%.

With `CCN(CC)C(=O)c1ccc(N(c2cccc(O)c2)C2CCN(Cc3ccccn3)CC2)cc1` [Example 30, N,N-diethyl-4-{3-hydroxy[1-(2-pyridinylmethyl)-4-piperidinyl]anilino}benzamide], in data set [1], the “MLM 10000 % REM.” value worked out at 26% and the “MLM 100000 % REM.” value was 82%. In data set [2], the “RLM 10000 % REM.” value is on record as 31% and the “RLM 100000 % REM.” value was found to be 74%.

The record behind these values is patent US6875777B2, “Compounds” (AstraZeneca AB, priority 1999, dated 2005).
